Results reported in patent publication US20250367132A1, “SOLID LIPID NANOPARTICLES FOR ENCAPSULATION AND DELIVERY OF BIOACTIVE COMPOUNDS AND METHODS OF MAKING THE SAME” (Yubeck, Inc., priority 2024, published 2025).

Experiments:
[1] = Dynamic light scattering (DLS): mean particle size and polydispersity index; assay type: physicochemical
Method: SLNs are characterized by particle size distribution, polydispersity index (PDI), surface charge (zeta potential), encapsulation efficiency (EE %), and loading capacity (LC %), all of which influence their stability, bioavailability, and controlled release properties. Particle size distribution is measured using dynamic light scattering (DLS), nanoparticle tracking analysis (NTA), or any equivalent method, ensuring SLN sizes range from 10 nm approximately 1000 nm. PDI, measured by DLS or NTA indicates uniformity of particle size distribution. Zeta potential, measured using […], electrophoretic light scattering (ELS), or an equivalent method, must have an absolute value of ≥25 mV, ensuring sufficient electrostatic repulsion to maintain colloidal stability. Encapsulation efficiency (EE %) and loading capacity (LC %) are measured using UV-Vis Spectroscopy, high performance liquid chromatography, or liquid chromatography mass spectrometry (LC-MS), amino acid analysis (AAA), or any equivalent method, with target values defined for each bioactive compound.
An example of the manufacturing process of whole Spirulina SLNs is disclosed below. In accordance with an aspect of the present invention, palmitic acid is dissolved in 100% ethanol (1.5 mg/mL) and heated to 70° C. Natural and sustainable ingredients that can be used as alternatives to palmitic acid, include stearic acid, behenic acid, lauric acid, cetyl alcohol, cocoa butter, shea butter, carnauba wax, candelilla wax, beeswax, and glycerol monostearate (GMS). Other natural lipids, such as oleic acid, linoleic acid, alpha-linolenic acid, gamma-linolenic acid, triglycerides such as medium-chain triglycerides (MCTs) or long-chain triglycerides (LCTs), and natural oils such as coconut oil, olive oil, and sunflower oil. Additional naturally derived lipid components such as 1-monolaurin, phosphatidylcholine, and phosphatidylethanolamine may also be used. […] The Spirulina SLNs are quantified using […] to measure the mean particle, PDI, and zeta potential. […]

[2] = cited from earlier work

| Compound | PDI ([1]; non-encapsulated, in solution) [%] | PDI ([1]; unencapsulated, before SLN fabrication) | mean particle size (initial diameter) ([1]; unencapsulated, in ethanol, before SLN fabrication) [nm] | Acceptable Daily Intake (ADI) ([2]; FDA, color additive petitions) | No Observed Effect Level (NOEL) ([2]; GRAS submission) |
| --- | --- | --- | --- | --- | --- |
| C=C1CC[C@H](O)C/C1=C/C=C1\CCC[C@]2(C)[C@@H]([C@H](C)CCCC(C)C)CC[C@@H]12 [vitamin D3, cholecalciferol] | 0.10±0.01 | 10.17±2.26 | 124.6±0.1 | – | – |
| phycocyanin | – | – | – | 1.0-1.8 g/p/d | 108-184.5 g/p/d |
